Test results: US20090233999A1, “COMPOSITIONS AND THERAPEUTIC METHODS INVOLVING ISOFLAVONES AND ANALOGUES THEREOF” (NOVOGEN RESEARCH PTY LTD, priority 1999, published 2009)

Assays:
[1] = test system: Dark Agouti rats (air pouch); test: Rat air pouch assay (serum-treated zymozan); type: in vivo; settings: for Leucocytes in lavage fluid (×10^−7) / Polymorphs in tissue sections (per 100 squares): 4 h; for activity in the rat air pouch assay: in vivo
Procedure: Air pouches were raised on the dorsum of female Dark Agouti rats, approximately seven weeks of age. To promote the formation of a cellular membrane lining the inside of each pouch, the pouches were maintained by re-inflating on days 2 and 5 after the initial injection of air. On re-inflation, the pouch was first deflated to ensure the needle was positioned correctly, before being re-inflated with 2 mL of sterile air. Using this protocol, the pouches remained inflated until use on day 7, when they were injected with 0.5 ml of either test compound or vehicle control. After 15 min, air pouches were injected with serum-treated zymozan (500 μg). Lavage of the air pouch was performed at 4 h and leucocytes counted, after which the rats were killed, the air pouch excised and processed in formalin for histology. The sections were blinded to the person counting. Using a graticule with 100 squares and the 40× objective, the number of polymorphs were counted in the pouch lining at 10 different and non-adjacent sites. Group sizes were 5-6 rats. Data were analysed for statistical significance within each experiment and using an unpaired t test.

[2] = test system: P-cadherin; test: UVB psoriasis model: immunohistochemical detection of P-cadherin; type: in vivo, mouse; settings: 20 μM topical
Procedure: (§1) Groups of three Skh:hr-1 mice were exposed to 3×MEdD of UVB radiation, with and without topical treatment with 20 μM Cpd. 18, and were euthanased before and at 24, 48, 72 and 96 h after irradiation, and mid-dorsal skin samples were taken for histological fixation. The samples were fixed for 6 h in Histochoice (Amresco Solon, Ohio), then processed overnight in an automated formalin-ethanol-based system (Tissue Tek VIP; Bayer Diagnostics, Ferntree Gully, Australia) and embedded into paraffin blocks. Sections of 4 μm were cut onto silane-coated slides, de-waxed and rehydrated using xylene followed by graded aqueous ethanol solutions to PBS. Endogenous peroxidase activity of the sections was quenched with 3% H2O2 in methanol for 10 min at room temperature and washed 3 times with PBS. The sections were then blocked with 10% skim milk in PBS for 40 min at room temperature. […]
(§2) The stained sections were examined by light microscopy at 20× magnification and images were captured digitally with a Sony Hyper HAD colour video camera (Sony, Tokyo, Japan). Stain intensity was analysed using a Leica Q500 MC image processing and analysis system (Leica, Cambridge, UK) and semi-quantitated in arbitrary image analysis units as the average intensity of 15 sequential fields across the skin section for each of 3 mice per treatment group. […]

[3] = test system: IL-6; test: UVB psoriasis model: immunohistochemical detection of IL-6; type: in vivo, mouse; settings: 20 μM topical; 72 h; Skh:hr-1
Procedure: as §1, with “PBS.” for “PBS. Endogenous peroxidase activity of the sections was quenched with 3% H2O2 in methanol for 10 min at room temperature and washed 3 times with PBS. The sections were then blocked with 10% skim milk in PBS for 40 min at room temperature.”
The IL-6 was detected by incubation with goat anti-mouse IL-6 antibody (R & D systems) followed biotinylated anti-goat IgG (Vector Laboratories, Burl ingame, CA), before treating with StreptABComplex/HRP (biotinylated horseradish peroxidase and streptavidin; Dako Corporation, CA) for 30 min. […]
as §2

[4] = test system: INFγ; test: INFγ production by murine splenocytes; type: cell-based, mouse; settings: 10 μM; Con A
Procedure: Male Skh-1 (hairless) mice, approximately six weeks old were killed by cervical dislocation. Single cell suspensions were made from the spleen and erythrocytes were lysed in buffer (0.14M NH4Cl, 17 mM Tris, pH 7.2). The remaining splenocytes were cultured in RPMI-1640 (Gibco) supplemented with 10% (v:v) FBS, 2 mM L-glutamine, pen/strep and 50 μM 2-mercaptoethanol. Splenocytes were added to quadruplicate wells containing either the T cell mitogen concanavalin A (Con A, Sigma-Aldrich—0. 4 μg/well), the B-cell mitogen LPS (Sigma-Aldrich—1 μg/well) or no mitogen, as well as test compound at a concentration of 10 μM in DMSO. Samples were analysed after a 3 day incubation at 37° C. in 5% CO2 in air. Cell viability was assessed by adding MTT to each well, incubating for a further 4 hrs and then developing colour with 0.04N HCl in isopropanol. Supernatant samples were frozen at −80° C. and IL-6, IFN-γ and TNFα were detected in triplicate using ELISA kits (BD Biosciences).

Question: What does the source list for `COc1ccc(C2=Cc3ccc(O)cc3OC2)cc1OC` [Cpd. 18, 7-Hydroxy-3′,4′-dimethoxyisoflav-3-ene]?
Answer: Leucocytes in lavage fluid (×10^−7) ([1]; 100 μM added to air pouch): 0.88 ± 0.30 ×10^−7; Polymorphs in tissue sections (per 100 squares) ([1]; 100 μM added to air pouch): 23.2 ± 10.4 per 100 squares; Leucocytes in lavage fluid (×10^−7) ([1]; 1 mM added to air pouch): 0.51 ± 0.33 ×10^−7; Polymorphs in tissue sections (per 100 squares) ([1]; 1 mM added to air pouch): 6.3 ± 1.3 per 100 squares; activity in the rat air pouch assay [1]: active; P-cadherin expression in the skin, treatment alone ([2]; without UVB): no effect; reduction of UVB-induced P-cadherin positive cells ([2]; 72 h, Skh:hr-1): approximately 50%; UVB-induced levels of IL-6 immunopositivity in the epidermis [3]: significantly reduced

Question: `Oc1ccc(C2=Cc3ccc(O)c(Br)c3OC2)cc1` [Cpd. 20, 4′,7-Dihydroxy-8-bromoisoflav-3-ene] was tested. Which “INFγ synthesis by T cells” value [4] did it give?
Answer: marked reduction

Question: What does the source list for `COc1cccc(C2=Cc3ccc(O)cc3OC2)c1` [Cpd. 16, 7-Hydroxy-3′-methoxyisoflav-3-ene]?
Answer: Leucocytes in lavage fluid (×10^−7) ([1]; 1 mM added to air pouch): 0.53 ± 0.35 ×10^−7; Polymorphs in tissue sections (per 100 squares) ([1]; 1 mM added to air pouch): 14.1 ± 15.8 per 100 squares; activity in the rat air pouch assay [1]: active
